From patent US12139488B2, “Pyrido[3,2-d]pyrimidine compounds uses thereof for treating a proliferative disease” (Universite de Montreal, priority 2021, dated 2024)
Where two headings read alike, the source gives them in different places.

Tests used:
[1] = system: pERK in HCT-116 cells (KRAS G13D); assay: Phospho-ERK inhibition (AlphaLISA SureFire Ultra p-ERK 1/2), HCT116; format: cell-based, human; settings: HCT116 cells; for HCT116 pERK Ymin %: Ymin in brackets
Method in brief: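 Cells in RPMI-1640 with 5% FBS were plated overnight, then exposed for 1 h to ten-point dilutions (typically 10 μM to 0.33 nM; 0.5% DMSO). Lysates were read by AlphaLISA SureFire Ultra for p-ERK1/2 Thr202/Tyr204; % inhibition used trametinib background and DMSO controls, with IC50 from four-parameter fits.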

[2] = system: pERK in SW480 cells (KRAS G12D); assay: Phospho-ERK inhibition (AlphaLISA), SW480; format: cell-based, human; settings: SW480 cells; for SW480 pERK Ymin %: Ymin in brackets; for IC50: class symbol before the bracket
Description: All cancer cell lines (A375, A101D, A2058, RKO, HT29 SK-MEL 30, IPC298, HepG2, HCT-116, Lovo, SWV620, SW480, NCI-H358, NCI-H2122, Calu-6, NCIH2087, NCIH1755, NCIH1666 and Mewo) were obtained from ATCC and cultured in RPMI-1640 medium (Gibco) supplemented with 5% heat inactivated fetal bovine serum (FBS, Wisent) at 37° C. under 5% CO2. Cells were maintained in T175 flasks (Greiner). They were passaged by removing the culture medium, washing once in 10 mL of room temperature Phosphate Buffered Saline (PBS; Wisent) and incubating at 37° C. with 2 mL of 0.05% Trypsin (Thermo-Fisher). Trypsin was then inactivated by adding complete growth medium and the cells were then replated in a T175 culture dish at the appropriate dilution. All cell lines were routinely tested for mycoplasma contamination. Tissue type and mutational status of each cell line can be found in Table B.
AlphaLISA® SureFire® Ultra™ p-ERK 1/2 (Thr202/Tyr204) analysis was conducted on cells plated in 100 μL of complete RPMI-1640 growth medium in 96-well flat-bottomed transparent dishes (Costar) at a density indicated in Table C. Cells were maintained overnight at 37° C. under 5% CO2 before treatment with compounds' dilution series for one hour. The cell density in cells/cm^2 corresponds to cell number divided by the area of one well of a 96-well plate ([…]).
In a dilution series 100 μL/well of test substance dilution prepared in complete RPMI-1640 growth media was added to the cells. The dilution series is selected so that ten concentrations cover a range from 10 μM to 0.33 nM. If necessary the initial concentration of 10 μM is increased to 100 μM or lowered to 1 μM (as in the case of A375 and H1666 cells, which are generally more sensitive to the compounds) and further dilution is carried out accordingly. The final concentration of DMSO in the assay is set at 0.5%.
After treatment, media was removed and cells were lysed in 50 μL of 1× AlphaScreen Ultra Lysis Buffer (Perkin Elmer). The AlphaLISA® SureFire® Ultra™ p-ERK 1/2 (Thr202/Tyr2O4) (PerkinElmer) reactions were performed with 5 μL of cell lysate according to the manufacturer's specifications in 384-well proxyplates (Perkin Elmer) followed by overnight incubation of the reactions at room temperature in a humidified chamber. After completion of the reactions, the signals were recorded on an EnVision plate reader (Perkin Elmer) using built in AlphaLISA® settings.
The effect of each compound dilution on the pERK signal was expressed in % inhibition and calculated as follows. An internal 100% inhibition control ([…] trametinib, cat #HY-10999; MedChem Express; CAS #871700-17-3) was included in each plate and used as a measure of pERK background. First, the value obtained for trametinib was subtracted from each data point. The average of DMSO (vehicle) controls (set as 0% inhibition) was established and used to calculate % inhibition: % inhibition=100*(1-((pERK signalcompound)/(pERK signalDMSO)))
The ability of each compound to inhibit pERK signal was expressed as an IC50 value obtained by plotting the inhibition values for each data point of a dilution series and fitting the obtained curves using a log(agonist) versus response-variable slope (four parameters) function using GraphPadPrism (V7.0) or Dotmatics Screening Ultra platform.
When present, paradoxical pERK induction is inferred from the negative % inhibition values observed in the pERK IC50 curves of a compound.

BRAF = BRAF (Homo sapiens (Human), UniProt P15056); assay: BRAF kinase activity assay (ADP-Glo); format: biochemical; settings: read-out: Kinase IC50 (nM) BRAF
Description: (§1) Compound preparation: solid samples of each substances in 1 dram vials were suspended in DMSO (Fisher Scientific) at a stock concentration of 20 mM. Stocks were kept at −20° C. and protected from light.
(§2) In vitro enzymatic reactions were used for evaluating compounds intrinsic activity against BRAF, CRAF and ARAF. […] Separate reactions were performed with the MEK1 substrate and ATP as a blank control.
(§3) For compound treatment, 5 μL/well of test substance solution are placed in a 384-well proxyplate (Perkin Elmer) and mixed with 2× concentrated kinase reactions. The dilution series is selected so that nine concentrations cover a range from 100 nM to 0.01 nM. […] The final concentration of DMSO in the assay is set at 0.05%.
(§4) BRAF and CRAF kinase reactions were carried out for a total of 2 hours at 30° C. and then stopped by ½ dilution in ADP-Glo Reagent (cat #V9102; Promega; part V912C). Reactions were then incubated for 1h at room temperature before addition of one volume of Kinase Detection Reagent (cat #V9102; Promega; part V917A). Plates were then equilibrated at room temperature for 30 minutes before detection of luminescence on a Synergy Neo2 plate reader (Biotek). The effect of each compound dilution on BRAF and CRAF kinase activity was expressed as % inhibition and calculated as follows.
(§5) IC50 values were obtained by plotting the kinase inhibition values and fitting the dose-activity curves using a log(agonist) versus response-variable slope (four parameters) function using either GraphPadPrism (V7.0) or Dotmatics Screening Ultra platform.

CRAF = CRAF (Homo sapiens, UniProt P04049); assay: CRAF kinase activity assay (ADP-Glo); format: biochemical
Description: as §1, §2, §3, §4, §5

[3] = class symbol before the bracket
[4] = read-out: Kinase IC50 (nM) CRAF

Sequence of CRAF (P04049 whole entry, looked up): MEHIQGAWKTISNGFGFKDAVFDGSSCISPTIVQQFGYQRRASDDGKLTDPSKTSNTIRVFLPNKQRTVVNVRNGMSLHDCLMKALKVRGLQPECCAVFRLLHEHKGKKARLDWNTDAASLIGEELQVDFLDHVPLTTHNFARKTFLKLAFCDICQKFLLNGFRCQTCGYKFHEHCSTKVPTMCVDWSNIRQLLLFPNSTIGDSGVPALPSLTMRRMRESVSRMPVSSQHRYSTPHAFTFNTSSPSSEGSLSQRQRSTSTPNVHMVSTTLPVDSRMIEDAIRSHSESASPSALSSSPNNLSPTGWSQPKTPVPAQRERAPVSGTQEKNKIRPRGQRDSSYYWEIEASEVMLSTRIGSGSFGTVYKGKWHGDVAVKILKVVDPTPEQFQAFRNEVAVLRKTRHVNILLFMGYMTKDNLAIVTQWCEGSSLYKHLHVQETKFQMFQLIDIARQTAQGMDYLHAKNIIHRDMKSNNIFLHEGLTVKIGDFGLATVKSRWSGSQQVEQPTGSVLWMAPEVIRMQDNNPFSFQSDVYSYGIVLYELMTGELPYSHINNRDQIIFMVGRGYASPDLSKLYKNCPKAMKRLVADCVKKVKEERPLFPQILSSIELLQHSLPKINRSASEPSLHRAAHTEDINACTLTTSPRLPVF
Sequence of BRAF (P15056 whole entry): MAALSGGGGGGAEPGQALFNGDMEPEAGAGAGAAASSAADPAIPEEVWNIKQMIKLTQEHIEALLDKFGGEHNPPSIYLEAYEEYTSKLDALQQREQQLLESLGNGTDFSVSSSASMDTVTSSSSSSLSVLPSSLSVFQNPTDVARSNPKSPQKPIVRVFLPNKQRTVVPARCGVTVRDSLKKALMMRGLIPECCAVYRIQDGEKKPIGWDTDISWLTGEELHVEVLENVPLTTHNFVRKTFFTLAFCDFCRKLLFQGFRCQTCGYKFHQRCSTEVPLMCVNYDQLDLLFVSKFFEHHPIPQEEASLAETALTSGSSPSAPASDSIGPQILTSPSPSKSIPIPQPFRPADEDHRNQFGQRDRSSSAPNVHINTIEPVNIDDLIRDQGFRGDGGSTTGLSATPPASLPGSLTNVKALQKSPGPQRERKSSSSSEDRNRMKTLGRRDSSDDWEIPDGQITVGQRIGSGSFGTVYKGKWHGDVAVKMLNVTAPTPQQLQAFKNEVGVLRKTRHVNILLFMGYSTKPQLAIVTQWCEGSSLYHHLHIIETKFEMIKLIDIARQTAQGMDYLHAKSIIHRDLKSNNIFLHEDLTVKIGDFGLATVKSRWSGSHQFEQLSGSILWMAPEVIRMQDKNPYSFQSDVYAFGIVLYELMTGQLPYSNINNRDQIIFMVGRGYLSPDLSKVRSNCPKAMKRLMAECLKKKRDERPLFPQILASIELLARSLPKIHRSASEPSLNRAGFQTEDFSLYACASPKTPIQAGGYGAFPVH

| Structure (SMILES) | IC50 [1, 3] | IC50 [2] | IC50 (BRAF) | IC50 (CRAF; [4]) | IC50 (CRAF; CRAF, read-out: Kinase IC50 (nM), CRAF biochemical kinase assay) | IC50 [1] | HCT116 pERK % Ymin (lowest value of the IC50 curve) ([1]; Ymin above −20% = minimal or no paradoxical activation) | HCT116 pERK Ymin % [1] | SW480 pERK Ymin % [2] |
| --- | --- | --- | --- | --- | --- | --- | --- | --- | --- |
| NC(=O)Cc1cn(-c2ccc3ncnc(Nc4c(F)ccc(NS(=O)(=O)c5ccccc5Cl)c4F)c3n2)c2ccccc12 [Ex 90] | 1000 to 10000 nM |  | 1 to 10 nM | < 10 nM |  |  |  | −1% |  |
| CNCc1cccc2c1ncn2-c1ccc2ncnc(Nc3c(F)ccc(NS(=O)(=O)c4ccccc4Cl)c3F)c2n1 [Ex 215] | 1000 to 10000 nM |  | 1 to 10 nM | 10 to 50 nM |  |  |  | −9% |  |
| O=S(=O)(Nc1ccc(F)c(Nc2ncnc3ccc(-n4cnc5c(CN6CCCC6)cccc54)nc23)c1F)c1ccccc1Cl [Ex 219] | 1000 to 10000 nM |  | 1 to 10 nM | 10 to 50 nM |  |  |  | 0% |  |
| CC(C)NCc1cccc2c1ncn2-c1ccc2ncnc(Nc3c(F)ccc(NS(=O)(=O)c4ccccc4Cl)c3F)c2n1 [Ex 222] | 1000 to 10000 nM |  | 1 to 10 nM | 10 to 50 nM |  |  |  | −11% |  |
| O=S(=O)(Nc1ccc(F)c(Nc2ncnc3ccc(-n4cnc5c(CN6CC(O)C6)cccc54)nc23)c1F)c1ccccc1Cl [Ex 225] | 1000 to 10000 nM |  | 1 to 10 nM | 10 to 50 nM |  |  |  | −8% |  |
| COc1ccc(S(=O)(=O)Nc2ccc(F)c(Nc3ncnc4ccc(-n5cc(C(N)=O)c6ccccc65)nc34)c2F)c(C)c1 [Example 69] | 1000 to 10000 nM | 1000 to 10000 nM |  |  |  |  |  | −1% | 3% |
| COc1ccc(S(=O)(=O)Nc2ccc(F)c(Nc3ncnc4ccc(-n5cnc6c([N+](=O)[O-])cccc65)nc34)c2F)c(C)c1 [Example 70] | 1000 to 10000 nM | 1000 to 10000 nM |  |  |  |  |  | −3% | 5% |
| COc1ccc(S(=O)(=O)Nc2ccc(F)c(Nc3ncnc4ccc(-c5ccc(OC)nc5)nc34)c2F)c(C)c1 [Example 71] | 1000 to 10000 nM | 1000 to 10000 nM |  |  |  |  |  | −4% | 8% |
| NC(=O)c1ccc(-c2ccc3ncnc(Nc4c(F)ccc(NS(=O)(=O)c5ccccc5Cl)c4F)c3n2)cc1 [Example 81] | 1000 to 10000 nM | 1000 to 10000 nM |  |  |  |  |  | −4% | 15% |
| CC(=O)Nc1cccc2c1ncn2-c1ccc2ncnc(Nc3c(F)ccc(NS(=O)(=O)c4ccccc4Cl)c3F)c2n1 [Example 85] | 500 to 1000 nM |  | 1 to 10 nM | 10 to 50 nM |  |  |  | 2.9% |  |
| Nc1cccc2c1nnn2-c1ccc2ncnc(Nc3c(F)ccc(NS(=O)(=O)c4ccccc4Cl)c3F)c2n1 [Example 92] | < 500 nM | < 500 nM |  |  |  |  |  | −4.6% | 18% |
| Nc1nc(-c2ccc3ncnc(Nc4c(F)ccc(NS(=O)(=O)c5ccccc5Cl)c4F)c3n2)cs1 [Example 94] | 1000 to 10000 nM |  | > 10 nM | > 50 nM |  |  |  | −5% |  |
| O=C(c1cn(-c2ccc3ncnc(Nc4c(F)ccc(NS(=O)(=O)c5ccccc5Cl)c4F)c3n2)c2ccccc12)N1CCOCC1 [Example 109] | < 500 nM | < 500 nM |  |  |  |  |  | −1.7% | −6.4% |
| Cc1c(Cl)cccc1S(=O)(=O)Nc1ccc(F)c(Nc2ncnc3ccc(-n4nc(C(=O)N5CCNCC5)c5ccccc54)nc23)c1F [Example 127] | < 500 nM | < 500 nM |  |  |  |  |  | −1.2% | −3.8% |
| O=S1(=O)CCN(c2cccc3c2ncn3-c2ccc3ncnc(Nc4c(F)ccc(NS(=O)(=O)c5cccc(Cl)c5Cl)c4F)c3n2)CC1 [Example 628] |  |  |  |  | < 10 nM | 500 to 1000 nM | 0% |  |  |

Further lines, with some results ahead:

| IC50 [1, 3] | IC50 [2] | IC50 (BRAF) | IC50 (CRAF; [4]) | IC50 (CRAF; CRAF, read-out: Kinase IC50 (nM), CRAF biochemical kinase assay) | IC50 [1] | HCT116 pERK % Ymin (lowest value of the IC50 curve) ([1]; Ymin above −20% = minimal or no paradoxical activation) | Structure (SMILES) | HCT116 pERK Ymin % [1] | SW480 pERK Ymin % [2] |
| --- | --- | --- | --- | --- | --- | --- | --- | --- | --- |
| 1000 to 10000 nM | 1000 to 10000 nM |  |  |  |  |  | Cc1c([N+](=O)[O-])ncn1-c1ccc2ncnc(Nc3c(F)ccc(NS(=O)(=O)c4ccccc4Cl)c3F)c2n1 [Ex 82] | −5% | 2% |
| 1000 to 10000 nM |  | 1 to 10 nM | 10 to 50 nM |  |  |  | CNC(=O)c1cn(-c2ccc3ncnc(Nc4c(F)ccc(NS(=O)(=O)c5ccccc5Cl)c4F)c3n2)c2ccccc12 [Ex 86] | −10% |  |
| < 500 nM |  | < 1 nM | 10 to 50 nM |  |  |  | CN(C)C(=O)c1cn(-c2ccc3ncnc(Nc4c(F)ccc(NS(=O)(=O)c5ccccc5Cl)c4F)c3n2)c2ccccc12 [Ex 87] | −4.4% |  |
| 1000 to 10000 nM |  | 1 to 10 nM | > 50 nM |  |  |  | CC(=O)c1cn(-c2ccc3ncnc(Nc4c(F)ccc(NS(=O)(=O)c5ccccc5Cl)c4F)c3n2)c2ccccc12 [Ex 214] | −12% |  |
| 500 to 1000 nM |  | 1 to 10 nM | 10 to 50 nM |  |  |  | CN(C)Cc1cccc2c1ncn2-c1ccc2ncnc(Nc3c(F)ccc(NS(=O)(=O)c4ccccc4Cl)c3F)c2n1 [Ex 216] | −8.8% |  |
| 1000 to 10000 nM |  | < 1 nM | < 10 nM |  |  |  | NCc1cccc2c1ncn2-c1ccc2ncnc(Nc3c(F)ccc(NS(=O)(=O)c4ccccc4Cl)c3F)c2n1 [Ex 217] | −9% |  |
| 1000 to 10000 nM |  | 1 to 10 nM | > 50 nM |  |  |  | COC1CN(Cc2cccc3c2ncn3-c2ccc3ncnc(Nc4c(F)ccc(NS(=O)(=O)c5ccccc5Cl)c4F)c3n2)C1 [Ex 226] | −9% |  |
| 1000 to 10000 nM |  | < 1 nM | 10 to 50 nM |  |  |  | O=S(=O)(Nc1ccc(F)c(Nc2ncnc3ccc(-n4cnc5c(CN6CCC(O)CC6)cccc54)nc23)c1F)c1ccccc1Cl [Ex 229] | −7% |  |
| 1000 to 10000 nM | 1000 to 10000 nM |  |  |  |  |  | NC(=O)c1cccc(-c2ccc3ncnc(Nc4c(F)ccc(NS(=O)(=O)c5ccccc5Cl)c4F)c3n2)c1 [Example 80] | 11% | 10% |
| 500 to 1000 nM |  | < 1 nM | < 10 nM |  |  |  | Cc1c(Cl)cccc1S(=O)(=O)Nc1ccc(F)c(Nc2ncnc3ccc(-n4cnc5c(O)cccc54)nc23)c1F [Example 116] | −18% |  |
